System: Dermatophyten und Schimmelpilze; Hefen
Test: Antimycotic in-vitro activity, serial dilution test
Assay type: cell-based
Details: 28°C, 24 h for yeasts, 96 h for dermatophytes and moulds, compared with the prior-art compound (A)
Protocol: Die in-vitro-Prüfung wurde im Reihenverdünnungstest mit Keiminokula von durchschnittlich […] Substrat durchgeführt. Als Nährmedium dienten • a) für Dermatophyten und Schimmelpilze: Sabourand's milieu d'epresive • b) für Hefen: Isotonic Sensitest-Broth von Oxid.
Die Bebrütungstemperatur betrug 28°C; Bebrütungsdauer war 24 Stunden bei Hefen und 96 Stunden bei Dermatophyten und Schimmelpilzen.

Compound	antimykotische Wirkung
CCCCC(C=C(C(=O)c1ccc(Cl)cc1Cl)n1ccnc1)CC (centres unmarked) [Beispiel 9]	bessere antimykotische Wirkung als die aus dem Stand der Technik bekannte Verbindung (A)
1-(2,4-Dichlorphenyl)-2-Eimidazol-1-yl)-3-(methylcyclohexen-3-yl)-2-propen-l-on [Beispiel 1]	bessere antimykotische Wirkung als die aus dem Stand der Technik bekannte Verbindung (A)
CCC(C)C=C(C(=O)c1ccc(Cl)cc1Cl)n1ccnc1 (centres unmarked) [Beispiel 6]	bessere antimykotische Wirkung als die aus dem Stand der Technik bekannte Verbindung (A)
CCCC(C)C=C(C(=O)c1ccc(Cl)cc1Cl)n1ccnc1 (centres unmarked) [Beispiel 7]	bessere antimykotische Wirkung als die aus dem Stand der Technik bekannte Verbindung (A)
CCC(C=C(C(=O)c1ccc(Cl)cc1Cl)n1ccnc1)CC [Beispiel 5]	bessere antimykotische Wirkung als die aus dem Stand der Technik bekannte Verbindung (A)

Source: patent EP0048827A1, “Substituted 2,4-dichlorophenyl-imidazolyl-vinyl ketones, processes for their preparation and antimicrobial agents containing these compounds” (BAYER AG, priority 1980, dated 1982)
